Assay results: PubChem BioAssay AID1918955 (Molecular Pharmacology Branch, DTP, NCI, 2023)
pIC50: −log10 of the molar value.

Tested on: NCI/ADR-RES complex spheroid viability
Assay: Anticancer human tumor NCI/ADR-RES cell line growth inhibition;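 also: spheroids exposed to compounds for 7 days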;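 as to viability, T/C: 100% = DMSO vehicle treated spheroids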
Conditions: for pIC50: curve of first compound; for viability, T/C: stronger effect = lower value
Procedure, shortened: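 Multicellular complex spheroids of tumor cells with human endothelial cells (HUVEC) and mesenchymal stem cells; the LSD1 inhibitor iadademstat was combined with standard-of-care or investigational agents. Top concentration at or near clinical Cmax, half-log dilutions; final DMSO ≤0.25%.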

[1] = second compound 0.1 µM, first compound 0.00949 µM
[2] = second compound 0.1 µM, first compound 0.03 µM
[3] = second compound 0.1 µM, first compound 0.0949 µM
[4] = second compound 0.1 µM, first compound 0.3 µM
[5] = second compound 0.316 µM, first compound 0.00949 µM
[6] = second compound 0.316 µM, first compound 0.03 µM
[7] = second compound 0.316 µM, first compound 0.0949 µM
[8] = second compound 0.316 µM, first compound 0.3 µM
[9] = second compound 1 µM, first compound 0.00949 µM
[10] = second compound 1 µM, first compound 0.03 µM
[11] = second compound 1 µM, first compound 0.0949 µM
[12] = second compound 1 µM, first compound 0.3 µM
[13] = second compound 3.16 µM, first compound 0.00949 µM
[14] = second compound 3.16 µM, first compound 0.03 µM
[15] = second compound 3.16 µM, first compound 0.0949 µM
[16] = second compound 3.16 µM, first compound 0.3 µM
[17] = second compound 10 µM, first compound 0.00949 µM
[18] = second compound 10 µM, first compound 0.03 µM
[19] = second compound 10 µM, first compound 0.0949 µM
[20] = second compound 10 µM, first compound 0.3 µM

**Q.** What does the source list for `Nc1ccccc1NC(=O)c1ccc(CNC(=O)OCc2cccnc2)cc1` + NC1CCC(NC2CC2c2ccccc2)CC1?
**A.** pIC50 (second compound 0.1 µM): 5.93; pIC50 (second compound 0.316 µM): 5.87; pIC50 (second compound 1 µM): 5.90; pIC50 (second compound 3.16 µM): 6.01; pIC50 (second compound 10 µM): 6.21; viability, T/C [1]: 106%; viability, T/C [2]: 96.8%; viability, T/C [3]: 93.4%; viability, T/C [4]: 80.8%; viability, T/C (second compound 0.1 µM, first compound 0.949 µM): 52.6%; viability, T/C (second compound 0.1 µM, first compound 3 µM): 32.7%; viability, T/C [5]: 110%; viability, T/C [6]: 98.6%; viability, T/C [7]: 96.8%; viability, T/C [8]: 93.8%; viability, T/C (second compound 0.316 µM, first compound 0.949 µM): 57.9%; viability, T/C (second compound 0.316 µM, first compound 3 µM): 30.5%; viability, T/C [9]: 106%; viability, T/C [10]: 100%; viability, T/C [11]: 97.6%; viability, T/C [12]: 76.5%; viability, T/C (second compound 1 µM, first compound 0.949 µM): 56.8%; viability, T/C (second compound 1 µM, first compound 3 µM): 32.9%; viability, T/C [13]: 102%; viability, T/C [14]: 100%; viability, T/C [15]: 93%; viability, T/C [16]: 79.6%; viability, T/C (second compound 3.16 µM, first compound 0.949 µM): 49.8%; viability, T/C (second compound 3.16 µM, first compound 3 µM): 30.7%; viability, T/C [17]: 95.1%; viability, T/C [18]: 79.8%; viability, T/C [19]: 72.7%; viability, T/C [20]: 65.5%; viability, T/C (second compound 10 µM, first compound 0.949 µM): 42.4%; viability, T/C (second compound 10 µM, first compound 3 µM): 22.2%

**Q.** How did the pIC50 (second compound 0.1 µM) turn out when `Nc1ccn(C2OC(CO)C(O)C2(F)F)c(=O)n1` (stereo not given) + NC1CCC(NC2CC2c2ccccc2)CC1 was run?
**A.** Its pIC50 is > 9.02.

**Q.** And the pIC50 (second compound 0.316 µM)?
**A.** The pIC50 was > 9.02.

**Q.** What about the pIC50 (second compound 1 µM) of the same compound?
**A.** Its pIC50 is > 9.02.

**Q.** And the pIC50 (second compound 3.16 µM)?
**A.** Its pIC50 is > 9.02.

**Q.** And the pIC50 (second compound 10 µM)?
**A.** The pIC50 was > 9.02.

**Q.** And the viability, T/C (second compound 0.1 µM, first compound 0.000949 µM)?
**A.** Its viability, T/C is 2.74%.

**Q.** And the viability, T/C (second compound 0.1 µM, first compound 0.003 µM)?
**A.** The viability, T/C was 4.03%.

**Q.** What about the viability, T/C [1] of the same compound?
**A.** The viability, T/C was 2.54%.

**Q.** What about the viability, T/C [2] of the same compound?
**A.** Its viability, T/C is 2.78%.

**Q.** What about the viability, T/C [3] of the same compound?
**A.** The viability, T/C was 2.85%.

**Q.** What about the viability, T/C [4] of the same compound?
**A.** The viability, T/C was 3.22%.

**Q.** What about the viability, T/C (second compound 0.316 µM, first compound 0.000949 µM) of the same compound?
**A.** The viability, T/C was 4.09%.

**Q.** And the viability, T/C (second compound 0.316 µM, first compound 0.003 µM)?
**A.** The viability, T/C was 4.64%.

**Q.** What about the viability, T/C [5] of the same compound?
**A.** Its viability, T/C is 2.74%.

**Q.** And the viability, T/C [6]?
**A.** The viability, T/C was 3.17%.

**Q.** And the viability, T/C [7]?
**A.** Its viability, T/C is 1.83%.

**Q.** What about the viability, T/C [8] of the same compound?
**A.** Its viability, T/C is 5.17%.

**Q.** What about the viability, T/C (second compound 1 µM, first compound 0.000949 µM) of the same compound?
**A.** The viability, T/C was 3.13%.

**Q.** What about the viability, T/C (second compound 1 µM, first compound 0.003 µM) of the same compound?
**A.** Its viability, T/C is 3.5%.

**Q.** What about the viability, T/C [9] of the same compound?
**A.** The viability, T/C was 3.1%.

**Q.** What about the viability, T/C [10] of the same compound?
**A.** The viability, T/C was 2.71%.

**Q.** What about the viability, T/C [11] of the same compound?
**A.** The viability, T/C was 2.01%.

**Q.** And the viability, T/C [12]?
**A.** Its viability, T/C is 1.76%.

**Q.** What about the viability, T/C (second compound 3.16 µM, first compound 0.000949 µM) of the same compound?
**A.** The viability, T/C was 2.3%.

**Q.** And the viability, T/C (second compound 3.16 µM, first compound 0.003 µM)?
**A.** The viability, T/C was 3.42%.

**Q.** What about the viability, T/C [13] of the same compound?
**A.** Its viability, T/C is 2.96%.

**Q.** And the viability, T/C [14]?
**A.** The viability, T/C was 1.75%.

**Q.** And the viability, T/C [15]?
**A.** Its viability, T/C is 0.86%.

**Q.** And the viability, T/C [16]?
**A.** Its viability, T/C is 2.49%.

**Q.** And the viability, T/C (second compound 10 µM, first compound 0.000949 µM)?
**A.** The viability, T/C was 1.69%.

**Q.** And the viability, T/C (second compound 10 µM, first compound 0.003 µM)?
**A.** Its viability, T/C is 2.17%.

**Q.** And the viability, T/C [17]?
**A.** The viability, T/C was 2.05%.

**Q.** And the viability, T/C [18]?
**A.** The viability, T/C was 2.1%.

**Q.** And the viability, T/C [19]?
**A.** The viability, T/C was 5.19%.

**Q.** And the viability, T/C [20]?
**A.** The viability, T/C was 0.69%.

**Q.** How did the pIC50 (second compound 0.1 µM) turn out when `O=C(c1cc(Cc2n[nH]c(=O)c3ccccc23)ccc1F)N1CCN(C(=O)C2CC2)CC1` + NC1CCC(NC2CC2c2ccccc2)CC1 was run?
**A.** The pIC50 was < 5.00.

**Q.** And the pIC50 (second compound 0.316 µM)?
**A.** Its pIC50 is < 5.00.

**Q.** And the pIC50 (second compound 1 µM)?
**A.** Its pIC50 is < 5.00.

**Q.** What about the pIC50 (second compound 3.16 µM) of the same compound?
**A.** The pIC50 was < 5.00.

**Q.** And the pIC50 (second compound 10 µM)?
**A.** The pIC50 was < 5.00.

**Q.** What about the viability, T/C (second compound 0.1 µM, first compound 0.0316 µM) of the same compound?
**A.** Its viability, T/C is 99.8%.

**Q.** What about the viability, T/C (second compound 0.1 µM, first compound 0.1 µM) of the same compound?
**A.** Its viability, T/C is 97.5%.

**Q.** What about the viability, T/C (second compound 0.1 µM, first compound 0.316 µM) of the same compound?
**A.** Its viability, T/C is 104%.

**Q.** What about the viability, T/C (second compound 0.1 µM, first compound 1 µM) of the same compound?
**A.** Its viability, T/C is 102%.

**Q.** And the viability, T/C (second compound 0.1 µM, first compound 3.16 µM)?
**A.** The viability, T/C was 102%.

**Q.** And the viability, T/C (second compound 0.1 µM, first compound 10 µM)?
**A.** Its viability, T/C is 87.6%.

**Q.** And the viability, T/C (second compound 0.316 µM, first compound 0.0316 µM)?
**A.** Its viability, T/C is 109%.

**Q.** And the viability, T/C (second compound 0.316 µM, first compound 0.1 µM)?
**A.** Its viability, T/C is 101%.

**Q.** And the viability, T/C (second compound 0.316 µM, first compound 0.316 µM)?
**A.** The viability, T/C was 105%.

**Q.** What about the viability, T/C (second compound 0.316 µM, first compound 1 µM) of the same compound?
**A.** The viability, T/C was 111%.

**Q.** And the viability, T/C (second compound 0.316 µM, first compound 3.16 µM)?
**A.** The viability, T/C was 96.2%.

**Q.** And the viability, T/C (second compound 0.316 µM, first compound 10 µM)?
**A.** The viability, T/C was 101%.

**Q.** And the viability, T/C (second compound 1 µM, first compound 0.0316 µM)?
**A.** Its viability, T/C is 100%.

**Q.** What about the viability, T/C (second compound 1 µM, first compound 0.1 µM) of the same compound?
**A.** The viability, T/C was 108%.

**Q.** What about the viability, T/C (second compound 1 µM, first compound 0.316 µM) of the same compound?
**A.** The viability, T/C was 112%.

**Q.** And the viability, T/C (second compound 1 µM, first compound 1 µM)?
**A.** The viability, T/C was 107%.

**Q.** What about the viability, T/C (second compound 1 µM, first compound 3.16 µM) of the same compound?
**A.** The viability, T/C was 105%.

**Q.** And the viability, T/C (second compound 1 µM, first compound 10 µM)?
**A.** The viability, T/C was 91.5%.

**Q.** What about the viability, T/C (second compound 3.16 µM, first compound 0.0316 µM) of the same compound?
**A.** The viability, T/C was 99.1%.

**Q.** And the viability, T/C (second compound 3.16 µM, first compound 0.1 µM)?
**A.** Its viability, T/C is 102%.

**Q.** What about the viability, T/C (second compound 3.16 µM, first compound 0.316 µM) of the same compound?
**A.** Its viability, T/C is 97.4%.

**Q.** What about the viability, T/C (second compound 3.16 µM, first compound 1 µM) of the same compound?
**A.** Its viability, T/C is 96%.

**Q.** What about the viability, T/C (second compound 3.16 µM, first compound 3.16 µM) of the same compound?
**A.** Its viability, T/C is 104%.

**Q.** And the viability, T/C (second compound 3.16 µM, first compound 10 µM)?
**A.** Its viability, T/C is 87.3%.

**Q.** And the viability, T/C (second compound 10 µM, first compound 0.0316 µM)?
**A.** Its viability, T/C is 94.8%.

**Q.** What about the viability, T/C (second compound 10 µM, first compound 0.1 µM) of the same compound?
**A.** Its viability, T/C is 97.4%.

**Q.** And the viability, T/C (second compound 10 µM, first compound 0.316 µM)?
**A.** The viability, T/C was 93.1%.

**Q.** And the viability, T/C (second compound 10 µM, first compound 1 µM)?
**A.** Its viability, T/C is 88.8%.

**Q.** What about the viability, T/C (second compound 10 µM, first compound 3.16 µM) of the same compound?
**A.** Its viability, T/C is 92.5%.

**Q.** And the viability, T/C (second compound 10 µM, first compound 10 µM)?
**A.** The viability, T/C was 91.7%.
